Results published in patent US20210253598A1, “ARYL ANNULATED MACROCYCLIC INDOLE DERIVATIVES” (priority 2017, published 2021).
Where “and” joins values, the source holds several entries; their conditions need not be identical. Equal entries are not always repeated. Structures can show the parent of a compound that is named as a salt. Where two headings read alike, the source gives them in different places.

Experiments:
SUDHL5 [1] = assay: Induction of caspase-3/7 activity in SUDHL5 cells (Assay 4); type: cell-based; settings: SUDHL5, 3 hours treatment, Caspase-Glo 3/7, median, read-out: Caspase SUDHL5 [M] (median)
Description: (§1) Induction of Caspase-3/7 Activity Upon Treatment of Cells with Selected Compounds
(§2) The BH3-domain of MCL-1 sequesters pro-apoptotic proteins, thereby inhibiting apoptosis. In contrast, MCL-1 inhibitors are expected to antagonize this effect leading to an increase in apoptosis, which can be determined by measuring the activity of caspase-3/7.
(§3) The activity of caspase-3/7 was determined in DLBCL (Diffuse large B-cell lymphoma) cell lines (SUDHL5 and SUDHL10) upon treatment with different compounds, using the Caspase-Glo® 3/7 reagent from Promega (G8092).
(§4) As a control, medium without cells was also added to the plate. Cells were incubated in a humidified incubator at 37° C. overnight.
(§5) Rim wells were excluded. The cells were incubated for 3 hours in a humidified incubator at 37° C. After this incubation, 30 μl of Caspase-Glo® 3/7 reagent (Promega G8092) was added to each well using the Multidrop Combi Reagent Dispenser, followed by 1 hour incubation at 37° C. Finally, luminescence was read at 0.1 ms, with a gain of 3000 using the PHERAstar FS microplate reader (BMG Labtech).
(§6) For the evaluation of the results, the background measured with “medium-only” was subtracted from all other values. Then, the values were normalized to DMSO-only treated cells (every value was divided by the mean of the DMSO control).

SUDHL10 [2] = assay: Induction of caspase-3/7 activity in SUDHL10 cells (Assay 4); type: cell-based; settings: SUDHL10, 3 hours treatment, Caspase-Glo 3/7, median, read-out: Caspase SUDHL10 [M] (median)
Description: as §1, §2, §3, §4, §5, §6

SUDHL5 [3] = assay: Anti-proliferative effect in SUDHL5 cells, CellTiter-Glo (Assay 7); type: cell-based; settings: SUDHL5, 72 hours incubation, CellTiter-Glo, median, read-out: Antiproli SUDHL5 [M] (median)
Description: (§7) Assessment of the Anti-Proliferative Effect of Compounds in Different Cell Lines
(§8) The impact of compounds on the proliferation of different cell lines was assessed using the CellTiter-Glo® Luminescent Cell Viability reagent from Promega (G7573).
(§9) In parallel, cells were plated in a reference (day 0) plate for time zero determination. Cells were incubated in a humidified incubator at 37° C. overnight.
(§10) Rim wells were excluded. The cells were incubated for 72 hours in a humidified incubator at 37° C. The day 0 plate was measured by adding 30 μL/well of CTG solution (CellTiter-Glo® Luminescent Cell Viability reagent, Promega G7573) to time zero wells in the reference plate followed by a 10 minutes incubation and luminescence reading at 0.1 ms. using the PHERAstar FS microplate reader (BMG Labtech).
(§11) After 72 hours incubation, the treated plates were measured in the same way as the day 0 plate mentioned above. The Bella DRC Master Sheet was used to calculate IC50s, with CI=day 0 values and C0=DMSO control values.

MCL-1 = MCL-1 (Homo sapiens, UniProt Q07820, K194A/K197A/R201A); assay: Protein-protein interaction assay MCL-1/Noxa BH3 peptide, TR-FRET (MCL-1 assay, Assay 1); type: binding; settings: MCL-1 Assay [M] (median), MBP-MCL-1 / Noxa BH3 peptide
Description: The dose-dependent inhibition by the compounds described in this invention of the interaction between MCL-1 and the BH3 domain of Noxa (both human) was determined using a steady state binding competition assay with time-resolved fluorescence energy transfer (TR-FRET) readout. For that purpose MCL-1 (amino acids 173-321, N-terminal fused to Maltose Binding Protein (MBP), SEQ ID 1) and a synthetic Noxa BH3-derived peptide of sequence Biotin-PEG2-PEG2-PAELEVE-Nva-[…]-amide (SEQ ID 2) served as protein receptor and tracer ligand respectively. The MBP-MCL-1 was purchased from Beryllium (Bedford, Mass., USA). The expression and purification of this protein construct has been described elsewhere (DOI:10.1371/journal.pone.0125010). The Noxa BH3-derived peptide can be obtained from e.g. Biosyntan (Berlin, Germany).
For that, 100-fold concentrated DMSO solutions were prepared by serial dilutions (1:3.4) of a 2 mM stock solution in a clear, 384-well microtiter plate (Greiner Bio-One, Frickenhausen, Germany). From there, 50 nl were transferred in a dark test plate (Greiner Bio-One, Frickenhausen, Germany). The assay was initiated by addition of 2 μl of a 2,5-fold concentrated MBP-MCL-1 solution (usually for a 1 nM end concentration in 5 μl reaction volume) in aqueous assay buffer [50 mM Tris/HCl pH 7, 100 mM sodium chloride (NaCl), 50 mM potassium fluoride (KF), 0.005% Tween-20, 2 mM DTT, 0.1% bovine gamma globulin (BGG)] to the compounds in the assay plate. This was followed by a 10-minute incubation step at 22° C. for pre-equilibration of the putative complex between MBP-MCL-1 and the compounds.
The mixture was incubated in the dark for one hour at 22° C. and then overnight at 4° C. The formation of MCL-1/Noxa complexes was determined by measuring the resonance energy transfer of the anti-MBP-Eu-cryptate antibody to the streptavidin-XL665 present in the reaction.
The resulting data (ratio) were normalized, taking 0% inhibition as the mean value of control measurements (usually 32 data points) where all reagents were included. In this case 50 nl DMSO were used instead of compounds. […] IC50 values were determined by regression analysis based on a 4 parameter equation (minimum, maximum, IC50, Hill; Y=Max+(Min−Max)/(1+(X/IC50)^Hill) using the Screener Software (Genedata).

SUDHL5 [4] = assay: Induction of cytotoxicity in SUDHL5 cells, CellTiter-Glo (Assay 6); type: cell-based; settings: SUDHL5, 5 hours incubation, median, read-out: Cytotox SUDHL5 [M] (median)
Description: (§12) Induction of Cytotoxicity Upon Treatment of Cells with Selected Compounds
(§13) In principle, compounds that induce apoptosis will concomitantly induce cell cytotoxicity. Therefore, cytotoxicity assays were run in parallel in SUDHL5 and SUDHL10 cells.
(§14) As a control, medium without cells was also added to the plate. Cells were incubated in a humidified incubator at 37° C. overnight. […] Rim wells were excluded. The cells were incubated for 5 hours in a humidified incubator at 37° C. After this incubation, 30 μl of CellTiter-Glo® Luminescent Cell Viability reagent (Promega, G7573) was added to each well using the Multidrop Combi Reagent Dispenser, followed by 15 minutes incubation on a shaker at room temperature. Finally, luminescence was read at 0.1 ms, with a gain of 3000 using the PHERAstar FS microplate reader (BMG Labtech).

SUDHL10 [5] = assay: Induction of cytotoxicity in SUDHL10 cells, CellTiter-Glo (Assay 6); type: cell-based; settings: SUDHL10, 5 hours incubation, median, read-out: Cytotox SUDHL10 [M] (median)
Description: as §12, §13, §14

A2780 = assay: Anti-proliferative effect in A2780 cells, CellTiter-Glo (Assay 7); type: cell-based; settings: A2780, 72 hours incubation, CellTiter-Glo, several values per example, read-out: Antiproli A2780
Description: as §7, §8, §9, §10, §11

Sequence of MCL-1 (Q07820 173-321 K194A/K197A/R201A, looked up): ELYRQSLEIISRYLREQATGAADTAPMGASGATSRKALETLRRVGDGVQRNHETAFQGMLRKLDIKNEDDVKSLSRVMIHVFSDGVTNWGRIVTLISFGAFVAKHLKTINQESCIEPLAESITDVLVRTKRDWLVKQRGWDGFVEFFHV

Compound	EC50 (SUDHL5 [1]; Homo sapiens, SU-DHL-5, 3 h) [M]	EC50 (SUDHL10 [2]; Homo sapiens, SU-DHL10, 3 h) [M]	IC50 (SUDHL5 [3]; Homo sapiens, SU-DHL-5, 72 h) [M]	IC50 (MCL-1) [M]	IC50 (SUDHL5 [4]; Homo sapiens, SU-DHL-5, 5 h) [M]	IC50 (SUDHL10 [5]; Homo sapiens, SU-DHL10, 5 h) [M]	IC50 (A2780; Acetate Salt) [µM]	IC50 (A2780; Homo sapiens, A2780, 72 h) [µM]	EC50 (SUDHL5 [1]) [M]	EC50 (SUDHL10 [2]) [M]	IC50 (SUDHL5 [3]) [M]	IC50 (SUDHL5 [4]) [M]	IC50 (SUDHL10 [5]) [M]	IC50 (A2780)
Cc1c2c(nn1C)COCc1ccccc1Cn1c(C(=O)O)c(CCCOc3cccc4ccccc34)c3cccc-2c31 (racemic) [Example 1, (rac)-4,5-Dimethyl-17-[3-(naphthalen-1-yloxy)propyl]-5,7,9,14-tetrahydroindolo[7,1-fg]pyrazolo[3,4-d][2,8]benzoxazacycloundecine-16-carboxylic Acid]	1e-05	> 3.3e-05	9e-06	1.4e-08	1.1e-05	> 1.6e-05	–	–	–	–	–	–	–	–
Cc1c2c(nn1C)COCc1cccnc1Cn1c(C(=O)O)c(CCCOc3cccc4ccccc34)c3cccc-2c31 (racemic) [Example 4, (rac)-4,5-Dimethyl-17-[3-(naphthalen-1-yloxy)propyl]-5,7,9,14-tetrahydropyrazolo-[4′,3′:9,10]pyrido[3′,2′:3,4][1,6]oxazacycloundecino[8,7,6-hi]indole-16-carboxylic Acid]	1.5e-05	> 3.2e-05	1.4e-05	5.3e-09	1.2e-05	> 2.3e-05	–	–	–	–	–	–	–	–
Cc1c2c(nn1C)COCc1ncccc1Cn1c(C(=O)O)c(CCCOc3cccc4ccccc34)c3cccc-2c31 (racemic) [Example 7, (rac)-4,5-Dimethyl-17-[3-(naphthalen-1-yloxy)propyl]-5,7,9,14-tetrahydropyrazolo[4′,3′:9,10]-pyrido[2′,3′:3,4][1,6]oxazacycloundecino[8,7,6-hi]indole-16-carboxylic Acid]	3e-06	1.6e-05	4.6e-06	–	3.6e-06	1.5e-05	–	–	–	–	–	–	–	–
Cc1c2c(nn1C)CN(S(=O)(=O)c1ccc(N3CCOCC3)nc1)Cc1ccccc1Cn1c(C(=O)O)c(CCCOc3cccc4ccccc34)c3cccc-2c31 (racemic) [Example 17, (rac)-4,5-Dimethyl-8-{[6-(morpholin-4-yl)pyridin-3-yl]sulfonyl}-17-[3-(naphthalen-1-yloxy)propyl]-7,8,9,14-tetrahydro-5H-indolo[1,7-bc]pyrazolo[4,3-e][2,8]benzodiazacycloundecine-16-carboxylic Acid Acetate Salt]	3e-06	8.5e-06	3.9e-06	3.4e-08	3.1e-06	1.4e-05	5.77	4.91	–	–	–	–	–	–
Cc1c2c(nn1C)COCc1cccnc1Cn1c(C(=O)O)c(CCCOc3cccc4ccccc34)c3cccc-2c31 (single isomer, unassigned; enantiomer 1) [Example 5, 4,5-Dimethyl-17-[3-(naphthalen-1-yloxy)propyl]-5,7,9,14-tetrahydropyrazolo[4′,3′:9,10]-pyrido[3′,2′:3,4][1,6]oxazacycloundecino[8,7,6-hi]indole-16-carboxylic Acid (Enantiomer 1)]	–	–	–	2.9e-09	–	–	–	–	5.4e-06	1.4e-05	5.2e-06	4.6e-06	1.3e-05	–
Cc1c2c(nn1C)COCc1cccnc1Cn1c(C(=O)O)c(CCCOc3cccc4ccccc34)c3cccc-2c31 (single isomer, unassigned; enantiomer 2) [Example 6, 4,5-Dimethyl-17-[3-(naphthalen-1-yloxy)propyl]-5,7,9,14-tetrahydropyrazolo[4′,3′:9,10]-pyrido[3′,2′:3,4][1,6]oxazacycloundecino[8,7,6-hi]indole-16-carboxylic Acid (Enantiomer 2)]	–	–	–	1.1e-08	–	–	–	–	> 2.2e-05	> 3.3e-05	1.2e-05	> 1.9e-05	> 3.3e-05	–
Cc1c2c(nn1C)COCc1ncccc1Cn1c(C(=O)O)c(CCCOc3cccc4ccccc34)c3cccc-2c31 (single isomer, unassigned; enantiomer 2) [Example 9, 4,5-Dimethyl-17-[3-(naphthalen-1-yloxy)propyl]-5,7,9,14-tetrahydropyrazolo[4′,3′:9,10]-pyrido[2′,3′:3,4][1,6]oxazacycloundecino[8,7,6-hi]indole-16-carboxylic acid-N-ethylethanamine Salt (Enantiomer 2)]	–	–	–	3.2e-08	–	–	–	–	> 3.3e-05	> 3.3e-05	2e-05	> 3.3e-05	> 3.3e-05	–
Cc1c2c(nn1C)COCc1ccccc1Cn1c(C(=O)O)c(CCCOc3cccc4ccccc34)c3ccc(Cl)c-2c31 (single isomer, unassigned; enantiomer 2) [Example 38, (+)-3-Chloro-4,5-dimethyl-17-[3-(naphthalen-1-yloxy)propyl]-5,7,9,14-tetrahydroindolo[7,1-fg]pyrazolo[3,4-d][2,8]benzoxazacycloundecine-16-carboxylic Acid (Enantiomer 2)]	–	–	–	7.1e-09	–	–	–	–	1.7e-06	1.1e-05	–	2.3e-06	6.8e-06	–
Cc1c2c(nn1C)COCc1cccnc1Cn1c(C(=O)O)c(CCCOc3cccc4ccccc34)c3cccc-2c31 [Example 04]	–	–	–	–	–	–	–	–	–	–	–	–	–	31.1 µM and > 33 µM
